Several values for one entry are separate records, joined by “and”; a condition that tells them apart may be missing. Identical values can stand only once. ± gives the expanded uncertainty stated by the source.
Conditions: Buoyancy - hydrostatic balance with magnetic suspension - one sinker

CC [ethane]
Conditions | mass density
225.41 K, 310.68 kPa, Gas | 5.2843 ± 0.012 kg/m3
225.41 K, 1642.2 kPa, Liquid | 489.85 ± 0.11 kg/m3
225.42 K, 212.66 kPa, Gas | 3.5454 ± 0.011 kg/m3
225.42 K, 1086.8 kPa, Liquid | 488.834 ± 0.11 kg/m3
225.42 K, 2133.2 kPa, Liquid | 490.717 ± 0.11 kg/m3
225.43 K, 709.57 kPa, Liquid | 488.151 ± 0.11 kg/m3
225.44 K, 403.34 kPa, Gas | 6.9981 ± 0.012 kg/m3
225.47 K, 499.44 kPa, Gas | 8.8558 ± 0.013 kg/m3
230.34 K, 306.85 kPa, Gas | 5.0853 ± 0.011 kg/m3
230.34 K, 1666.7 kPa, Liquid | 482.366 ± 0.11 kg/m3
230.34 K, 2111.2 kPa, Liquid | 483.236 ± 0.11 kg/m3
230.35 K, 197.35 kPa, Gas | 3.2054 ± 0.011 kg/m3
230.35 K, 391.01 kPa, Gas | 6.5852 ± 0.012 kg/m3
230.35 K, 493.22 kPa, Gas | 8.4852 ± 0.012 kg/m3
230.35 K, 2447.9 kPa, Liquid | 483.853 ± 0.11 kg/m3
230.36 K, 615.49 kPa, Gas | 10.8842 ± 0.012 kg/m3
230.36 K, 1671.6 kPa, Liquid | 482.356 ± 0.11 kg/m3
230.37 K, 1281 kPa, Liquid | 481.577 ± 0.11 kg/m3
230.38 K, 886.51 kPa, Liquid | 480.769 ± 0.11 kg/m3
235 K, 391.54 kPa, Gas | 6.4356 ± 0.011 kg/m3
235.01 K, 305.16 kPa, Gas | 4.9382 ± 0.011 kg/m3
235.01 K, 499.46 kPa, Gas | 8.3818 ± 0.012 kg/m3
235.01 K, 592.34 kPa, Gas | 10.1286 ± 0.013 kg/m3
235.02 K, 197.5 kPa, Gas | 3.137 ± 0.011 kg/m3
235.03 K, 694.56 kPa, Gas | 12.1431 ± 0.013 kg/m3
239.99 K, 717.05 kPa, Gas | 12.2167 ± 0.013 kg/m3
240.01 K, 954.18 kPa, Gas | 17.1448 ± 0.014 kg/m3
240.04 K, 105.82 kPa, Gas | 1.619 ± 0.01 kg/m3
240.04 K, 323.6 kPa, Gas | 5.1239 ± 0.011 kg/m3
240.04 K, 502.79 kPa, Gas | 8.2138 ± 0.012 kg/m3
240.04 K, 1755.7 kPa, Liquid | 466.891 ± 0.11 kg/m3
240.05 K, 2196.3 kPa, Liquid | 467.899 ± 0.11 kg/m3
240.06 K, 1092.2 kPa, Liquid | 465.243 ± 0.11 kg/m3
240.06 K, 1457.2 kPa, Liquid | 466.142 ± 0.11 kg/m3
240.08 K, 2591.9 kPa, Liquid | 468.767 ± 0.11 kg/m3
240.09 K, 2936.2 kPa, Liquid | 469.524 ± 0.11 kg/m3
244.91 K, 880.77 kPa, Gas | 15.0548 ± 0.013 kg/m3
244.91 K, 1111.6 kPa, Gas | 20.0182 ± 0.014 kg/m3
244.92 K, 628.26 kPa, Gas | 10.2258 ± 0.012 kg/m3
244.92 K, 877.28 kPa, Gas | 14.9812 ± 0.013 kg/m3
244.92 K, 1123.2 kPa, Liquid | 456.739 ± 0.11 kg/m3
244.92 K, 1225 kPa, Liquid | 457.081 ± 0.11 kg/m3
244.92 K, 1442.7 kPa, Liquid | 457.624 ± 0.11 kg/m3
244.93 K, 138.73 kPa, Gas | 2.0893 ± 0.01 kg/m3
244.93 K, 350.79 kPa, Gas | 5.4481 ± 0.011 kg/m3
244.93 K, 350.8 kPa, Gas | 5.4496 ± 0.011 kg/m3
244.93 K, 904.97 kPa, Gas | 15.5558 ± 0.013 kg/m3
244.93 K, 1659 kPa, Liquid | 458.187 ± 0.11 kg/m3
244.93 K, 1659.6 kPa, Liquid | 458.185 ± 0.11 kg/m3
244.95 K, 1111.4 kPa, Gas | 20.0202 ± 0.014 kg/m3
249.79 K, 863.82 kPa, Gas | 14.2661 ± 0.013 kg/m3
249.8 K, 863.8 kPa, Gas | 14.2677 ± 0.013 kg/m3
249.8 K, 1281.6 kPa, Gas | 23.1579 ± 0.017 kg/m3
249.81 K, 360.58 kPa, Gas | 5.4802 ± 0.011 kg/m3
249.81 K, 633.6 kPa, Gas | 10.0488 ± 0.012 kg/m3
249.81 K, 1067.5 kPa, Gas | 18.3574 ± 0.015 kg/m3 and 18.3577 ± 0.015 kg/m3
249.81 K, 1281.3 kPa, Gas | 23.1411 ± 0.017 kg/m3
249.82 K, 147.6 kPa, Gas | 2.1773 ± 0.0099 kg/m3
249.84 K, 2352.9 kPa, Liquid | 451.272 ± 0.1 kg/m3
249.85 K, 2081.5 kPa, Liquid | 450.462 ± 0.1 kg/m3
249.86 K, 2510.3 kPa, Liquid | 451.694 ± 0.1 kg/m3
249.86 K, 2510.4 kPa, Liquid | 451.694 ± 0.1 kg/m3
249.87 K, 2510.9 kPa, Liquid | 451.681 ± 0.1 kg/m3
249.9 K, 1805.5 kPa, Liquid | 449.546 ± 0.1 kg/m3
249.93 K, 1301 kPa, Liquid | 447.948 ± 0.1 kg/m3
249.93 K, 1354.2 kPa, Liquid | 448.104 ± 0.1 kg/m3
249.93 K, 1591.6 kPa, Liquid | 448.847 ± 0.1 kg/m3
254.69 K, 1692.1 kPa, Liquid | 439.901 ± 0.1 kg/m3
254.69 K, 2265.9 kPa, Liquid | 441.863 ± 0.1 kg/m3
254.7 K, 2492.4 kPa, Liquid | 442.576 ± 0.1 kg/m3
254.7 K, 2493.3 kPa, Liquid | 442.588 ± 0.1 kg/m3
254.72 K, 114.93 kPa, Gas | 1.6547 ± 0.0096 kg/m3
254.72 K, 2013.5 kPa, Liquid | 440.937 ± 0.1 kg/m3
254.73 K, 225.89 kPa, Gas | 3.2988 ± 0.0098 kg/m3
254.74 K, 1474.7 kPa, Gas | 26.843 ± 0.016 kg/m3
254.75 K, 3109.9 kPa, Liquid | 444.464 ± 0.1 kg/m3
254.76 K, 634.94 kPa, Gas | 9.817 ± 0.011 kg/m3
254.76 K, 825.19 kPa, Gas | 13.1528 ± 0.012 kg/m3
254.76 K, 1040.1 kPa, Gas | 17.2189 ± 0.013 kg/m3
254.76 K, 1280.4 kPa, Gas | 22.2529 ± 0.015 kg/m3
254.76 K, 1280.5 kPa, Gas | 22.2533 ± 0.015 kg/m3
254.76 K, 2860.9 kPa, Liquid | 443.666 ± 0.1 kg/m3
254.77 K, 423.98 kPa, Gas | 6.354 ± 0.01 kg/m3
254.78 K, 3457.8 kPa, Liquid | 445.504 ± 0.1 kg/m3
254.81 K, 2648.7 kPa, Liquid | 442.883 ± 0.1 kg/m3
259.62 K, 933.39 kPa, Gas | 14.7341 ± 0.012 kg/m3
259.62 K, 1174.9 kPa, Gas | 19.3302 ± 0.013 kg/m3
259.62 K, 1700.9 kPa, Liquid | 429.637 ± 0.1 kg/m3
259.62 K, 2698.9 kPa, Liquid | 433.539 ± 0.1 kg/m3
259.63 K, 152.52 kPa, Gas | 2.1615 ± 0.0095 kg/m3
259.63 K, 358.5 kPa, Gas | 5.211 ± 0.01 kg/m3
259.63 K, 550.88 kPa, Gas | 8.2159 ± 0.011 kg/m3
259.63 K, 726.92 kPa, Gas | 11.1161 ± 0.011 kg/m3
259.63 K, 1351.5 kPa, Gas | 23.0156 ± 0.015 kg/m3
259.63 K, 1351.6 kPa, Gas | 23.0046 ± 0.015 kg/m3
259.63 K, 1548.6 kPa, Gas | 27.5129 ± 0.016 kg/m3
259.63 K, 2097.3 kPa, Liquid | 431.21 ± 0.1 kg/m3
259.63 K, 2412.9 kPa, Liquid | 432.441 ± 0.1 kg/m3
259.63 K, 3076.2 kPa, Liquid | 434.902 ± 0.1 kg/m3
265.02 K, 505.8 kPa, Gas | 7.3166 ± 0.01 kg/m3
265.06 K, 116.65 kPa, Gas | 1.6114 ± 0.0092 kg/m3
265.06 K, 279.98 kPa, Gas | 3.9405 ± 0.0095 kg/m3
265.06 K, 3532.6 kPa, Liquid | 425.483 ± 0.1 kg/m3
265.07 K, 1811.5 kPa, Gas | 32.6652 ± 0.017 kg/m3
265.07 K, 2278.6 kPa, Liquid | 419.942 ± 0.099 kg/m3
265.07 K, 2962.8 kPa, Liquid | 423.046 ± 0.099 kg/m3
265.08 K, 1404.5 kPa, Gas | 23.2391 ± 0.014 kg/m3
265.08 K, 1612.3 kPa, Gas | 27.8016 ± 0.016 kg/m3
265.08 K, 2073 kPa, Liquid | 418.96 ± 0.099 kg/m3
265.08 K, 2322.7 kPa, Liquid | 420.14 ± 0.099 kg/m3
265.08 K, 2963.1 kPa, Liquid | 423.044 ± 0.099 kg/m3
265.08 K, 3081.3 kPa, Liquid | 423.536 ± 0.099 kg/m3
265.08 K, 3090.5 kPa, Liquid | 423.579 ± 0.099 kg/m3
265.09 K, 2565.3 kPa, Liquid | 421.145 ± 0.099 kg/m3
265.09 K, 3539.3 kPa, Liquid | 425.459 ± 0.1 kg/m3
265.1 K, 816.83 kPa, Gas | 12.3046 ± 0.011 kg/m3
265.1 K, 1004.4 kPa, Gas | 15.548 ± 0.012 kg/m3
265.1 K, 1199.4 kPa, Gas | 19.1462 ± 0.013 kg/m3
265.1 K, 2730.8 kPa, Liquid | 421.962 ± 0.099 kg/m3

— the NIST ThermoML archive (doi:10.1016/j.jct.2014.06.023)
